Measured values as given in PMC9877316, “Identification of a novel P2X7 antagonist using structure-based virtual screening” (Frontiers in Pharmacology, 2023).
pIC50: −log10 of the molar value.

Molecular target: T1, human P2X7 (Homo sapiens, UniProt Q99572)
T1 construct: expressed in transfected cells; host or cells: 1321N1 astrocytoma cells (compounds 1-17); HEK-293 cells stably expressing human P2X7 (gift of E. Adinolfi)
T1 sequence (Q99572 1-595): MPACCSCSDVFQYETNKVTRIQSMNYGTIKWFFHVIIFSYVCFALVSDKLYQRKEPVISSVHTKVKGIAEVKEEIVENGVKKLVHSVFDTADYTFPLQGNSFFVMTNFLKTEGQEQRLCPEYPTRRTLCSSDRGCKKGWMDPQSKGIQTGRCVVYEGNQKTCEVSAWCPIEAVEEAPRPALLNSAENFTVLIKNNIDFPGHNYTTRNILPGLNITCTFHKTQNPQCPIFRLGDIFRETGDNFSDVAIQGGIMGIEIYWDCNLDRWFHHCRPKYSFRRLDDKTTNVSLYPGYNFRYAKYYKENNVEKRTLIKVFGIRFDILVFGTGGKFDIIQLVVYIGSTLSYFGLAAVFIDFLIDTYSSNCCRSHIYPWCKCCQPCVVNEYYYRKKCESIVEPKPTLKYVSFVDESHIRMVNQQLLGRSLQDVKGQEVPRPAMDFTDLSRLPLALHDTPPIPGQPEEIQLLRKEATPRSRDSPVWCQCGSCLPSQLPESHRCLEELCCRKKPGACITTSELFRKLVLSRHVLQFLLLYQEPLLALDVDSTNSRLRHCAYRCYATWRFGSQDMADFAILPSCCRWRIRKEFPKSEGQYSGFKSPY
Test: ATP-induced YoPro-1 dye uptake assay, human P2X7
Assay type: cell-based
Conditions: 300 µM ATP, YoPro-1 uptake
Description: 1321N1 astrocytoma cells and HEK-293 cells were cultured (at 37°C, 5% CO2) in Dulbecco’s modified Eagle’s medium (DMEM/F-12 with Glutamax) supplemented with 10% foetal bovine serum (FBS) and 200 unit/ml of penicillin and streptomycin antibiotics (Fisher Scientific). For stable cell line generation, cells were transfected using FuGene HD Transfection Reagent (Promega) according to the manufacturer’s protocol with plasmids encoding either human P2X4 with a C-terminal (His)10 tag ([Young et al., 2008]), human P2X7 with a C-terminal EYMPME tag (kindly provided by R.A. North) or rat P2X7 C-terminally tagged with a GFP-(His)8 tag, generated by PCR amplification of the coding sequence for rat P2X7 from a pcDNA-based expression vector ([Young et al., 2007]), adding XhoI and EcoRI sites at the 5′- and 3′- ends respectively, followed by restriction digestion and ligation into a zebrafish P2X4-GFP expression vector based on pEGFP-C1 (kindly provided by Eric Gouaux; [Kawate and Gouaux, 2006]) to replace the zebrafish P2X4 coding region with rP2X7. Transfected clones were grown in DMEM/F-12 with Glutamax medium supplemented with G-418 (Geneticin®, Fisher Scientific), 600 μg/ml and 150 μg/ml during selection and maintenance respectively. […] HEK-293 cells stably expressing human P2X7 ([Adinolfi et al., 2010]) were a kind gift from Elena Adinolfi.
Cells were plated as for the calcium influx assay (Section 2.4). Culture medium was replaced with low divalent cation containing extracellular solution (ECS-LD; 147 mM NaCl, 10 mM HEPES, 13 mM Glucose, .2 mM CaCl2, 2 mM KCl. pH = 7.4 in MilliQ water) and 5 μM Yopro-1. […] The baseline was measured with a BMG Clariostar instrument for 5–10 cycles, followed by addition of ATP (or BzATP) and recording for at least 30 further cycles (approx. 1 min per data point). The collected responses were normalized to the first data-point recorded after ATP addition. The initial gradient of the dye uptake curve was used to calculate the response to ATP.
The antagonist activity of the 17 compounds (applied at 10 µM) was assayed initially on 1321N1 astrocytoma cells stably expressing human P2X4 receptors by measuring the ATP-induced (applied at 1.2 µM) increase in Fluo-4 fluorescence due to calcium influx via P2X4, using 2 µM BX430 as a positive control (Figure 1A). […] The ATP-induced rate of uptake of YoPro-1 dye was measured upon application of at 300 µM ATP, using .1 µM A740003 as a positive control (Figure 1B).
A small library of 16 commercially available compounds was selected according to the presence of the same scaffold as GP-25, (70% similarity, Tanimoto index) and/or presence of at least one functional group we hypothesized could contribute to GP-25 activity (e.g. carboxylic acid, halogen substituent to the aromatic ring, ester, etc.) (Compounds 18–33; Table 1). […] Although the number of compounds tested was limited by their availability via a commercial source, the numerous ‘hits’ allowed for a basic structure-relationship (SAR) analysis.

inhibition at 30 µM (P2X7, approx. % inhibition at 30 μM compound, 1321N1 (1-17) or HEK (18-33) cells, read-out: % Inhibition at hP2X7): ~75% | pIC50: 5.06
Compound: COC(=O)C1=C(C)NC2=C(C(=O)c3ccccc32)C1c1cc(Br)ccc1OCC(=O)O (centres unmarked) [Compound 9, (4-bromo-2-(3-(methoxycarbonyl)-2-methyl-5-oxo-4,5-dihydro-1H-indeno(1,2-b)pyridine-4-yl)phenoxy)acetic acid]
